Target: T1, PPARγ-LBD (UniProt ID: P37231-2) (Homo sapiens, UniProt P37231)
T1 construct: PPARγ-LBD (UniProt ID: P37231-2) was expressed and purified in insect system; made in house
T1 sequence (P37231 238-503 limits assumed): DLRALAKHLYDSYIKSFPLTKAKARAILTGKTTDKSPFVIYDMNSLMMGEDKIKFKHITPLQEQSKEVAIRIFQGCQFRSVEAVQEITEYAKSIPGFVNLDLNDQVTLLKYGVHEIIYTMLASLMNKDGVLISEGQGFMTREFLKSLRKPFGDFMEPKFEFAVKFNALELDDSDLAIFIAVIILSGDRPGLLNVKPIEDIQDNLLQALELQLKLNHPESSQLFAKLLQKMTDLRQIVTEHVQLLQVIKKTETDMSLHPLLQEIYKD
Assay: PPARγ-SMRT recruitment assay (TR-FRET)
Assay type: biochemical
Settings: for Emax: 1 h, max value of % Activation, high control 10 uM control compound, low control 1% DMSO, read-out: Top %; for EC50: TR-FRET, SMRT peptide recruitment to PPARγ-LBD, 120 min pre-incubation
Experimental: PPARγ TR-FRET assay was initiated to evaluate potential activatory effect of the compounds of the present disclosure for SMRT recruitment to PPARγ protein. PPARγ-LBD (UniProt ID: P37231-2) was expressed and purified in insect system and stored at −80° C. in aliquots. Biotinylated SMRT peptide was synthesized (Biotin-[…]). 5 μL protein solution mixture consisting of 10 nM PPARγ-LBD and 2 nM Anti-His Eu (Cisbio, 61HISKLA) in assay buffer (25 mM HEPES pH7.4, 25 mM KCl, 1 mM EDTA, 0.01% BSA, 0.01% Tween-20, 1 mM TCEP) was added to 384-well plates containing duplicate 10-point dose response titration of compounds in 5 μL assay buffer (1% f.c. DMSO(v/v)). After 120 min pre-incubation at room temperature, 5 μL peptide solution mixture consisting of 50 nM Biotin-SMRT peptide and 25 nM Streptavidin-XL665 (Cisbio, 610SAXLA) added to plates. Plates were incubated for 60 min. and read in CLARIOstar Plus plate reader with Ex/Em 620 nm/[…]. Average TR-FRET ratio of high control (Wells with 10 uM control compound) was calculated as High Control (HC). Average TR-FRET ratio of low control (Wells with 1% DMSO) was calculated as Low control (LC). For one compound, top % is the max value of % Activation.
EC50 values were determined by fitting the data to the standard 4 parameters with Hill Slope using GraphPad Prism software. […] ND: No Determine.

Compound | Emax [%] | EC50 [nM]
CCC#Cc1c(F)cc2[nH]c(-c3cc(C#N)ccc3S(C)(=O)=O)cc(=O)c2c1F [Example 20, 3-(6-(But-1-yn-1-yl)-5,7-difluoro-4-oxo-1,4-dihydroquinolin-2-yl)-4-(methylsulfonyl)benzonitrile] | 210 | < 100
CS(=O)(=O)c1ccc(C#N)cc1-c1cc(=O)c2c(F)c(C#CC3CCOC3)c(F)cc2[nH]1 (stereo not drawn) [Example 34, 3-(5,7-Difluoro-4-oxo-6-((tetrahydrofuran-3-yl)ethynyl)-1,4-dihydroquinolin-2-yl)-4-(methylsulfonyl)benzonitrile] | 290 | < 100
CS(=O)(=O)c1ccc(C#N)cc1-c1cc(=O)c2c(F)c(C#Cc3cnc4cccnn34)c(F)cc2[nH]1 [Example 40, 3-(5,7-Difluoro-6-(imidazo[1,2-h]pyridazin-3-ylethynyl)-4-oxo-1,4-dihydroquinolin-2-yl)-4-(methylsulfonyl)benzonitrile] | 237 | < 100
C#Cc1c(F)cc2[nH]c(-c3cc(C#N)ccc3S(C)(=O)=O)cc(=O)c2c1F [Example 2, 3-(6-Ethynyl-5,7-difluoro-4-oxo-1,4-dihydroquinolin-2-yl)-4-(methylsulfonyl)benzonitrile] | 311 | < 100
C[C@H](O)C#Cc1c(F)cc2[nH]c(-c3cc(C#N)ccc3S(C)(=O)=O)cc(=O)c2c1F [Example 5, (S)-3-(5,7-Difluoro-6-(3-hydroxybut-1-yn-1-yl)-4-oxo-1,4-dihydroquinolin-2-yl)-4-(methylsulfonyl)benzonitrile] | 367 | < 100
COc1cccnc1C#Cc1c(F)cc2[nH]c(-c3cc(C#N)ccc3S(C)(=O)=O)cc(=O)c2c1F [Example 38, 3-(5,7-Difluoro-6-((3-methoxypyridin-2-yl)ethynyl)-4-oxo-1,4-dihydroquinolin-2-yl)-4-(methylsulfonyl)benzonitrile] |  | < 100
CC(C)(C#Cc1c(F)cc2[nH]c(-c3cc(C#N)ccc3S(C)(=O)=O)cc(=O)c2c1F)S(C)(=O)=O [Example 48, 3-(5,7-Difluoro-6-(3-methyl-3-(methylsulfonyl)but-1-yn-1-yl)-4-oxo-1,4-dihydroquinolin-2-yl)-4-(methylsulfonyl)benzonitrile] |  | < 100
